# Experiments:
# [1] = molecular target: T1, CFTR (Homo sapiens, UniProt P13569, DEL508-508); experiment: Flow cytometry, presence of CFTR epitopes on CFBE41o− cells; format: cell-based; details: 24 h of treatment, CHF6001 30 nM, Roflumilast 50 nM
# T1 construct: cells expressing endogenous ΔF508-CFTR; endogenous in cells; host or cells: CFBE41o− human CF bronchial epithelial cell line (gift from D. C. Gruenert), homozygous ΔF508
# Method: CFBE41o− cells were seeded 1.5×10^5 cells/well into a 6 multi-well dish in EMEM medium, supplemented with 10% FBS and 1 mM L-glutamine, and maintained in incubator at 37° C. overnight. The day after, the cells were treated with different agents, as follows: VRT809 (5 μM), CHF6001 (30 nM), Roflumilast (50 nM) or the vehicle DMSO. After 24 h cells were harvested.
# Specifically for detection of the extracellular domain of CFTR, the cells were washed with PBS 1× and successively stained with the anti-CFTR monoclonal antibody CF3 (Abeam), suitable for detection of the extracellular domain of CFTR. After washing, the secondary antibody goat anti-mouse (μ-chain) conjugated with Alexa Fluor-488 (Invitrogen, Carlsbad, U.S.A.) was added (1 μg for 10^6 cells) for 30 min on ice. […]
# Finally cells were washed twice and then analysed at MACSQuant Analyzer (Miltenyi Biotech, Cologne, Germany), and data were analysed with FlowJo Software (Tree Star, Inc).
# The percentage of events with background noise (determined with IgM isotype or peptide signal) was subtracted and the result was expressed as %-values of CFTR positive cells. Geometrical means of the signal in the green channel were also obtained and a ratio between the signals obtained with the extracellular-domain specific antibody CF3 and with the polyclonal antibody (Alomone), respectively, with respect to the baseline signal was calculated (MFI). […]
# [2] = diarrhea, weight loss, nausea, headache, insomnia and others; cited from earlier work
# [3] = molecular target: T2, ΔF508 CFTR (Homo sapiens, UniProt P13569, DEL508-508); experiment: HS-YFP assay, CFTR potentiator activity in CFBE41o− cells; format: cell-based; details: 10 minutes exposure, following CFTR correction by VRT809 (5 μM, 24 h)
# T2 construct: cells expressing endogenous ΔF508-CFTR; endogenous in cells; host or cells: CFBE41o− human CF bronchial epithelial cell line (gift from D. C. Gruenert), homozygous ΔF508
# T2 sequence (P13569 with tags, fused parts or gaps DEL508-508): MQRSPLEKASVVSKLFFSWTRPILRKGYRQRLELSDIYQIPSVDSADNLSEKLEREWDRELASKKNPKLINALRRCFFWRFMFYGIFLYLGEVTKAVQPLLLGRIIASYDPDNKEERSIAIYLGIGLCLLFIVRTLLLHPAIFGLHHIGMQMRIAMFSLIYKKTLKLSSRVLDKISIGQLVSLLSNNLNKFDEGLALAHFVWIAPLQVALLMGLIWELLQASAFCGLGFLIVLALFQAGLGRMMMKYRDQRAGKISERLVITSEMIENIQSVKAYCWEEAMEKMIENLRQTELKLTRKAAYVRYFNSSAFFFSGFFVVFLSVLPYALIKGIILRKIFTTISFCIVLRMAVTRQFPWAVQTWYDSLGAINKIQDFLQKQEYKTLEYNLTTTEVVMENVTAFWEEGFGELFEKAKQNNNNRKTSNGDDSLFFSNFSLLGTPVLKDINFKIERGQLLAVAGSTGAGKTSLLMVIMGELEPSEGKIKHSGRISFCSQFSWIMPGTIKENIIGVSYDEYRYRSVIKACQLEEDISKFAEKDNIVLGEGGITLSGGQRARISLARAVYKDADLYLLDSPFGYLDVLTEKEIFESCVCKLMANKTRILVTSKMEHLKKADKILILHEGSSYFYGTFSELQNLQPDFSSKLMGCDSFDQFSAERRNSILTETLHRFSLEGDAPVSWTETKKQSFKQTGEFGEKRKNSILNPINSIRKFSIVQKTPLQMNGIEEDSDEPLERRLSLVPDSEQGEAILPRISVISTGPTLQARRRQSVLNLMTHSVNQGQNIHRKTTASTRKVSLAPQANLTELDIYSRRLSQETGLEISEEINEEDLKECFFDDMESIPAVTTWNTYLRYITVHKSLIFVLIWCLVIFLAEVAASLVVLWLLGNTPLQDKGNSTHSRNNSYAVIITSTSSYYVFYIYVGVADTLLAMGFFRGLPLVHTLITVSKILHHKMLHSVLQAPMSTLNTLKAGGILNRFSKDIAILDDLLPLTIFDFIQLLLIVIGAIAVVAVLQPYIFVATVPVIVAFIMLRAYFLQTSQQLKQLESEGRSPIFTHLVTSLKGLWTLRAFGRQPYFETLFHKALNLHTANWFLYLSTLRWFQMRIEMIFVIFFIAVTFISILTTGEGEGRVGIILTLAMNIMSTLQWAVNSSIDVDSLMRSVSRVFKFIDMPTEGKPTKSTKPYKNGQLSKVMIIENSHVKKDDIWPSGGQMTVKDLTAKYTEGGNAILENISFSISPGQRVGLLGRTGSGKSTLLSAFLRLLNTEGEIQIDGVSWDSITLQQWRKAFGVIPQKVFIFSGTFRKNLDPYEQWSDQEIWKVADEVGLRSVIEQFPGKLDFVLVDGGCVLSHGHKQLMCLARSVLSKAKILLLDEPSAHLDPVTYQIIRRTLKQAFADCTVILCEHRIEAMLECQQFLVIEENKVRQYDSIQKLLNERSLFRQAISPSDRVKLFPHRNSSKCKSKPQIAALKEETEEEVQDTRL
# Source text: The CF human bronchial epithelial cell line (CFBE41o−), homozygous for the ΔF508 mutation of the CFTR protein (Ehrhard et al., 2006, Cell Tissue Res. Vol. 323, p. 405-415; kind gift from D. C. Gruenert, California Pacific Medical Center Research Institute, San Francisco, Calif., USA) and the human bronchial epithelial cell line 16HBE14o−, wildtype (wt) for the CFTR protein (kindly provided by P. Davis, Case Western Reserve University School of Medicine, Cleveland, Ohio, USA) were maintained in EMEM (Lonza) supplemented with 10% FBS and 1% Glutamax (Sigma). […]
# The CFTR activity in epithelial cells was evaluated by Yellow Fluorescence Protein (YFP) with a protocol modified from the method published by Averna et al. (PLoS One, 2013, vol. 8, e66089). […]
# The potential effect of different agents on the activity of CFTR in CFBE41o− cells was analysed by the HS-YFP assay, combining a short exposure (10 minutes) with agents as follows: CHF6001, Roflumilast or VRT 770 (5 μM), alone or in combination, with a 24 h pre-treatment with the CFTR corrector VRT809 (5 μM). […]
# [4] = healthy volunteers, daily doses of up to 4800 μg (4.8 mg) for 14 days; cited from earlier work
# T1 sequence (P13569 with tags, fused parts or gaps DEL508-508): as above
SMILES,"presence of CFTR epitopes (CF3 extracellular, Alomone intracellular) [1]",frequency of common adverse effects in subjects [2],CFTR activity (delta fluorescence un-stimulated versus stimulated cells) [3],safety and tolerability [4]
"O=C(Nc1c(Cl)cncc1Cl)c1ccc(OC(F)F)c(OCC2CC2)c1 [Roflumilast, 3-cyclo-propylmethoxy-4-difluoromethoxy-N-[3,5-di-chloropyrid-4-yl]-benzamide]",restore the presence of CFTR epitopes,1-10%,,
"CS(=O)(=O)Nc1ccc(C(=O)OC(Cc2c(Cl)c[n+]([O-])cc2Cl)c2ccc(OC(F)F)c(OCC3CC3)c2)cc1OCC1CC1 (centres unmarked) [CHF6001, 3-Cyclopropylmethoxy-4-methanesulfonylamino-benzoic acid 1-(3-cyclopropylmethoxy-4-difluoromethoxy-phenyl)-2-(3,5-dichloro-1-oxy-pyridin-4-yl)-ethyl ester]",restore the presence of CFTR epitopes,,comparable to the reference compound VRT 770,Good safety and tolerability

# — patent US20220218678A1, “USE OF 1-PHENYL-2-PYRIDINYL ALKYL ALCOHOL DERIVATIVES FOR TREATING CYSTIC FIBROSIS” (CHIESI FARMACEUTICI S.p.A., priority 2017, published 2022)
